As usually defined, the Ki is a dissociation constant, usually derived from enzyme kinetics or from competition with a known ligand.

In one assay the target is T1, human H4 receptor (Homo sapiens, UniProt Q9H3N8).
T1 construct: expressed in transfected cells
T1 sequence (Q9H3N8 whole entry): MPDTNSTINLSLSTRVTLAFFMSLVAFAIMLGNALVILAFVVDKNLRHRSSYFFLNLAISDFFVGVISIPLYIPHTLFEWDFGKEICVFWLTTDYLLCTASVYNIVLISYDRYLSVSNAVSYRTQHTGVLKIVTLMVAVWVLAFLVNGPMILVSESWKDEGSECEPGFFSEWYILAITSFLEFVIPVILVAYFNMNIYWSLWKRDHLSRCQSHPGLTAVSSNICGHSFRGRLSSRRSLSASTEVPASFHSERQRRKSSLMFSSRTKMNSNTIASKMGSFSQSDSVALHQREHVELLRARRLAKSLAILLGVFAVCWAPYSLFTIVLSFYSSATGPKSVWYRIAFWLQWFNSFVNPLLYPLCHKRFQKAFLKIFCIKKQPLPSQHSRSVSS
Put plainly: [3H]Histamine binding on membranes of CHO cells stably expressing human H4 receptor.
Conditions: not given
The method in brief: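 Nonspecific binding defined with 10 μM JNJ 7777120. Bound radioactivity collected on polyethyleneimine-treated GF/B filters and counted by liquid scintillation.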
`CN1CCC(OC(c2cccc(OCCCF)c2)c2nc3ccccc3[nH]2)CC1` (stereo not shown) [Example 475]: the Ki or IC50 activity class was < 300 nM.

In the case of `CC(=O)NC1CCN(c2cccc(C(OC3CCN(C)CC3)c3nc4ccccc4s3)c2)C1` (stereo not shown) [Example 408, N-(1-{3-[benzothiazol-2-yl(1-methylpiperidin-4-yloxy)methyl]phenyl}pyrrolidin-3-yl)acetamide], the Ki or IC50 activity class was < 300 nM.

Regarding `CN1CCC(OC(c2nc3ccccc3s2)c2ccccc2F)CC1` (stereo not shown) [Example 6, 2-[(2-fluorophenyl)(1-methylpiperidin-4-yloxy)methyl]benzothiazole], the Ki or IC50 activity class is < 300 nM.

Turning to `CN1CCC(OC(c2cccc(SCCNC(=N)N)c2)c2nc3ccccc3s2)CC1` (stereo not shown) [Example 302, N-(2-{3-[benzothiazol-2-yl(1-methylpiperidin-4-yloxy)methyl]phenylsulfanyl}ethyl)guanidine], the Ki or IC50 activity class is < 30 nM.

Take `CN1CCC(OC(c2cccc(OCCCCCN)c2)c2nc3ccccc3s2)CC1` (stereo not shown) [Example 371, 5-{3-[benzothiazol-2-yl(1-methylpiperidin-4-yloxy)methyl]phenoxy}pentylamine]: the Ki or IC50 activity class is < 30 nM.

In the case of `CCSc1cccc(C(OC2CCN(C)CC2)c2nc3ccccc3s2)c1` (stereo not shown) [Example 159, 2-[(3-ethylsulfanylphenyl)(1-methylpiperidin-4-yloxy)methyl]benzothiazole], the Ki or IC50 activity class was < 30 nM.

For `CN1CCC(OC(c2cccs2)c2nc3ccccc3s2)CC1` (stereo not shown) [Example 13, 2-[(1-methylpiperidin-4-yloxy)thiophen-2-ylmethyl]benzothiazole], the Ki or IC50 activity class is < 300 nM.

On to `CN1CCC(COC(c2cccc(Br)c2)c2nc3ccccc3s2)C1` (single isomer, unassigned) [Example 464], for which the Ki or IC50 activity class is < 30 nM.

For `CCCCCCc1cccc(C(NC2CCN(C)CC2)c2nc3ccccc3[nH]2)c1` (stereo not shown) [Example 76, [(1H-benzimidazol-2-yl)(3-hexylphenyl)methyl](1-methylpiperidin-4-yl)amine], the Ki or IC50 activity class was < 300 nM.

Regarding `CN1CCC(OC(c2cccc(SCCCCCN)c2)c2nc3ccccc3[nH]2)CC1` (stereo not shown) [Example 381, 5-{3-[(1H-benzimidazol-2-yl)(1-methylpiperidin-4-yloxy)methyl]phenylsulfanyl}pentylamine], the Ki or IC50 activity class was < 30 nM.

In the case of `CN1CCC(OC(c2cccc(OC(F)(F)F)c2)c2nc3ccccc3s2)CC1` (stereo not shown) [Example 23, 2-[(1-methylpiperidin-4-yloxy)(3-trifluoromethoxyphenyl)methyl]benzothiazole], the Ki or IC50 activity class is < 30 nM.

In the case of `CN1CCC(OC(c2cccc(N3CC(N(C)C)C3)c2)c2nc3ccccc3s2)CC1` (stereo not shown) [Example 450], the Ki or IC50 activity class is < 1000 nM.

With `CN1CCC(OC(c2cccc(SCc3ccccc3)c2)c2nc3ccccc3[nH]2)CC1` (stereo not shown) [Example 150, 2-[(3-benzylsulfanylphenyl)(1-methylpiperidin-4-yloxy)methyl]-1H-benzimidazole], the Ki or IC50 activity class is < 300 nM.

Regarding `CN1CCC(OC(c2cccc(SCCCCN)c2)c2nc3cc(F)c(F)c(F)c3[nH]2)CC1` (stereo not shown) [Example 493], the Ki or IC50 activity class is < 30 nM.

For the molecule `CN1CCC(OC(c2cccc(CCCCNC(=N)NC(=O)OC(C)(C)C)c2)c2nc3ccccc3[nH]2)CC1` (stereo not shown) [Example 309, N-tert-butoxycarbonyl-N′-(4-{3-[(1H-benzimidazol-2-yl)(1-methylpiperidin-4-yloxy)methyl]phenyl}butyl)guanidine], the Ki or IC50 activity class is < 300 nM.

For `CN1CCC(OC(c2ccc(F)cc2)c2nc3ccccc3s2)CC1` (stereo not shown) [Example 3, 2-[(4-fluorophenyl)(1-methylpiperidin-4-yloxy)methyl]benzothiazole], the Ki or IC50 activity class was < 300 nM.

As to `CN1CCC(OC(c2ccc(F)c(OC(F)(F)F)c2)c2nc3ccccc3[nH]2)CC1` (stereo not shown) [Example 518], the Ki or IC50 activity class is < 1000 nM.

`CN1CCC(NC(c2cccc(OCc3ccccc3)c2)c2nc3ccccc3s2)CC1` (stereo not shown) [Example 101, [benzothiazol-2-yl(3-benzyloxyphenyl)methyl](1-methylpiperidin-4-yl)amine]: the Ki or IC50 activity class was < 30 nM.

`CCCOc1cccc(C(NC2CCN(C)CC2)c2nc3ccccc3s2)c1` (single isomer, unassigned) [Example 56, [benzothiazol-2-yl(3-propoxyphenyl)methyl](1-methylpiperidin-4-yl)amine]: the Ki or IC50 activity class is < 300 nM.

Take `CN1CCC(OC(c2cccc(SCC(=O)NCCN)c2)c2nc3ccccc3[nH]2)CC1` (stereo not shown) [Example 436, N-(2-aminoethyl)-2-{3-[(1H-benzimidazol-2-yl)(1-methylpiperidin-4-yloxy)methyl]phenylsulfanyl}acetamide]: the Ki or IC50 activity class is < 30 nM.

Regarding `COc1ccccc1-c1cccc(C(OC2CCN(C)CC2)c2nc3ccccc3s2)c1` (stereo not shown) [Example 96, 2-[(2′-methoxybiphenyl-3-yl)(1-methylpiperidin-4-yloxy)methyl]benzothiazole], the Ki or IC50 activity class is < 300 nM.

With `CC(=O)c1cccc(-c2cccc(C(OC3CCN(C)CC3)c3nc4ccccc4[nH]3)c2)c1` (stereo not shown) [Example 110, 1-{3′-[(1H-benzimidazol-2-yl)(1-methylpiperidin-4-yloxy)methyl]biphenyl-3-yl}ethanone], the Ki or IC50 activity class is < 300 nM.

For `CN1CCC(OC(c2ccc3ccsc3c2)c2nc3ccccc3[nH]2)CC1` (stereo not shown) [Example 556, 2-[benzo[b]thiophen-6-yl(1-methylpiperidin-4-yloxy)methyl]-1H-benzimidazole], the Ki or IC50 activity class is < 30 nM.

Consider `CN1CCC(OC(c2cccc(-c3ccc(Cl)c(Cl)c3)c2)c2nc3ccccc3s2)CC1` (stereo not shown) [Example 133, 2-[(3′,4′-dichlorobiphenyl-3-yl)(1-methylpiperidin-4-yloxy)methyl]benzothiazole], for which the Ki or IC50 activity class is < 300 nM.

Take `CN1CCC(OC(c2cccc(N3CCC(N(C)C)C3)c2)c2nc3ccccc3s2)CC1` (stereo not shown) [Example 484]: the Ki or IC50 activity class is < 30 nM.

With `CN1CCC(OC(c2cccc(C=CCCCO)c2)c2nc3ccccc3s2)CC1` (stereo not shown) [Example 384, 5-{3-[benzothiazol-2-yl(1-methylpiperidin-4-yloxy)methyl]phenyl}pent-4-en-1-ol], the Ki or IC50 activity class was < 300 nM.

Consider `CN1CCC(OC(c2nc3ccccc3o2)c2cc(OC(F)(F)F)ccc2F)CC1` (stereo not shown) [Example 525, 2-[(2-fluoro-5-trifluoromethoxyphenyl)(1-methylpiperidin-4-yloxy)methyl]benzoxazole], for which the Ki or IC50 activity class is < 300 nM.

With `COc1cccc(C(OC2CCN(C)CC2)c2nc3ccccc3s2)c1` (stereo not shown) [Example 11, 2-[(3-methoxyphenyl)(1-methylpiperidin-4-yloxy)methyl]benzothiazole], the Ki or IC50 activity class is < 30 nM.

`Cc1ccccc1COc1cccc(C(NC2CCN(C)CC2)c2nc3ccccc3[nH]2)c1` (stereo not shown) [Example 129, {(1H-benzimidazol-2-yl)[3-(2-methylbenzyloxy)phenyl]methyl}(1-methylpiperidin-4-yl)amine]: the Ki or IC50 activity class is < 30 nM.

As for `CCc1cccc(C(OC2CCN(C)CC2)c2nc3ccccc3s2)c1` (stereo not shown) [Example 152, 2-[(3-ethylphenyl)(1-methylpiperidin-4-yloxy)methyl]benzothiazole], the Ki or IC50 activity class is < 30 nM.

For the molecule `COc1cc(F)cc(C(OC2CCN(C)CC2)c2nc3ccccc3s2)c1` (stereo not shown) [Example 40, 2-[(3-fluoro-5-methoxyphenyl)(1-methylpiperidin-4-yloxy)methyl]benzothiazole], the Ki or IC50 activity class was < 30 nM.

For the molecule `CN1CCC(OC(c2cccc(Cl)c2)c2nc3ccccc3[nH]2)CC1` (stereo not shown) [Example 225, 2-[(3-chlorophenyl)(1-methylpiperidin-4-yloxy)methyl]-1H-benzimidazole], the Ki or IC50 activity class is < 300 nM.

For `CN1CCC(OC(c2cccc(OC3CCNC3)c2)c2nc3ccccc3[nH]2)CC1` (stereo not shown) [Example 461], the Ki or IC50 activity class is < 300 nM.

In the case of `CN1CCC(OC(c2cccc(N3CC4CN(C)CC4C3)c2)c2nc3ccccc3s2)CC1` (stereo not shown) [Example 485], the Ki or IC50 activity class is < 1000 nM.

Take `CN1CCC(OC(c2cccc(NCc3ccccc3)c2)c2nc3ccccc3s2)CC1` (stereo not shown) [Example 234, {3-[benzothiazol-2-yl(1-methylpiperidin-4-yloxy)methyl]phenyl}benzyl-amine]: the Ki or IC50 activity class was < 300 nM.

As to `CN1CCC(OC(c2cccc(C#N)c2)c2nc3ccccc3s2)CC1` (stereo not shown) [Example 197, 3-[benzothiazol-2-yl(1-methylpiperidin-4-yloxy)methyl]benzonitrile], the Ki or IC50 activity class was < 30 nM.

Regarding `CN1CCC(OC(c2cccc(-c3ccc(C(F)(F)F)cc3)c2)c2nc3ccccc3s2)CC1` (stereo not shown) [Example 140, 2-[(1-methylpiperidin-4-yloxy)(4′-trifluoromethylbiphenyl-3-yl)methyl]benzothiazole], the Ki or IC50 activity class was < 300 nM.

For the molecule `CN1CCC(OC(c2cccc(SCCNC(=N)N)c2)c2nc3ccccc3[nH]2)CC1` (stereo not shown) [Example 278, N-(2-{3-[(1H-benzimidazol-2-yl)(1-methylpiperidin-4-yloxy)methyl]phenylsulfanyl}ethyl)guanidine], the Ki or IC50 activity class was < 30 nM.

With `CN1CCC(OC(c2cccc(OCCCF)c2)c2nc3ccccc3s2)CC1` (stereo not shown) [Example 176, 2-[[3-(3-fluoropropoxy)phenyl](1-methylpiperidin-4-yloxy)methyl]benzothiazole], the Ki or IC50 activity class is < 30 nM.

Turning to `CN1CCC(OC(c2cccc(SCCO)c2)c2nc3ccccc3[nH]2)CC1` (stereo not shown) [Example 157, 2-{3-[(1H-benzimidazol-2-yl)(1-methylpiperidin-4-yloxy)methyl]phenylsulfanyl}ethanol], the Ki or IC50 activity class was < 300 nM.

For `CSc1cccc(C(OC2CCN(C)CC2)c2nc3ccccc3[nH]2)c1` (stereo not shown) [Example 202, 2-[(1-methylpiperidin-4-yloxy)(3-methylsulfanyl-phenyl)methyl]-1H-benzimidazole], the Ki or IC50 activity class is < 30 nM.

With `CN1CCC(OC(c2cccc(SCCCO)c2)c2nc3ccccc3s2)CC1` (stereo not shown) [Example 254, 3-{3-[benzothiazol-2-yl(1-methylpiperidin-4-yloxy)methyl]phenylsulfanyl}propan-1-ol], the Ki or IC50 activity class is < 30 nM.

The assay is the same for the next values; noted with them: read-out: Activity (Ki or IC50).
With `CN1CCC(OC(c2cccc(SCC3(CCO)CC3)c2)c2nc3ccccc3[nH]2)CC1` (stereo not shown) [Example 257], the Ki is < 1000 nM.
